According to PMC8143291, “Cytotoxicity and Microbicidal Activity of Commonly Used Organic Solvents: A Comparative Study and Application to a Standardized Extract from Vaccinium macrocarpon” (Toxics, 2021):

Assays:
[1] = system: Y. enterocolitica IP 864 O: 3; test: Dehydrogenase activity (DEHA) MTT test after BMD; type: cell-based, Yersinia enterocolitica; settings: 24 h exposure; % against untreated control; ± SD; n = 3
Description: (§1) The cell dehydrogenase (DEHA, redox, metabolic) activity of all samples was measured at the end of the BMD assay, based on reducing the MTT dye to formazan by the membrane located bacterial enzyme NADH: ubiquinone reductase (H^+-translocation). The protocol of Wang et al. was applied after minor modifications. Briefly, each sample was incubated for 120 min at 37 °C with MTT at a final concentration of 0.5 mg/mL in the culture medium. The resulting non-soluble violet formazan crystals were dissolved with an equal volume of 2-propanol supplemented with 5% formic acid. The absorbance was measured at 550 nm against a blank solution containing the respective volumes of MHB and MTT.
The IC50 values from the MTT assay were evaluated with a non-linear regression analysis (Curve fit, GraphPad Prizm 6.01 software, GraphPad Software Inc., San Diego, CA, USA) using sigmoidal concentration–response curves. The cell viability is presented as a percentage of the untreated control. At least four wells were seeded for every concentration. Three independent assays were performed (n = 3). The maximum tolerated concentration (MTC) for the cell lines was determined from three independent assays according to ISO 10993-5 as the maximum concentration at which at least 70% of the cells were viable (nonlin fit, range, GraphPad Prizm 6.01 software) GraphPad Software Inc., San Diego, CA, USA). To compare the MTC values of the solvents for each cell line, the ordinary One-way ANOVA statistical analysis based on Tukey’s multiple comparisons test with a single pooled variance (GraphPad Prizm 6.01 software) GraphPad Software Inc., San Diego, CA, USA) was utilized, and p ≤ 0.05 was set as a significance level. The respiratory activity of the bacterial cultures was calculated as a percentage against the untreated control.

S. Aureus ATCC 29213 = test: Dehydrogenase activity (DEHA) MTT test after BMD; type: cell-based, Staphylococcus aureus; settings: 24 h exposure; % against untreated control; ± SD; n = 3
Description: as §1
The cell viability is presented as a percentage of the untreated control. At least four wells were seeded for every concentration. Three independent assays were performed (n = 3). […] The respiratory activity of the bacterial cultures was calculated as a percentage against the untreated control.

E. coli ATCC 35218 = test: Dehydrogenase activity (DEHA) MTT test after BMD; type: cell-based, Escherichia coli; settings: in MHB; 24 h exposure; % against untreated control; ± SD; n = 3
Description: as §1
The IC50 values from the MTT assay were evaluated with a non-linear regression analysis (Curve fit, GraphPad Prizm 6.01 software, GraphPad Software Inc., San Diego, CA, USA) using sigmoidal concentration–response curves. The cell viability is presented as a percentage of the untreated control. […] The maximum tolerated concentration (MTC) for the cell lines was determined from three independent assays according to ISO 10993-5 as the maximum concentration at which at least 70% of the cells were viable (nonlin fit, range, GraphPad Prizm 6.01 software) GraphPad Software Inc., San Diego, CA, USA). […] The respiratory activity of the bacterial cultures was calculated as a percentage against the untreated control.

[2] = system: A-375 (malignant melanoma); test: MTT dye-reduction cytotoxicity assay (ISO 10993-5); type: cell-based, human; settings: solvent alone, n = 3
From the text: The cell lines utilized in this study included the human tumor lines A-375 (malignant melanoma) and A-431 (non-melanoma epidermoid squamous skin carcinoma) as well as the models for non-tumorigenic cells—HaCaT (immortalized human keratinocytes) and CCL-1^TM (transformed mouse fibroblasts, NCTC clone 929). The first three cell lines were obtained from CLS Cell Lines Service (GmbH, Eppelheim, Germany). CCL-1^TM was purchased from the American Type Culture Collection (ATCC, Manassas, VA, USA). Cells were maintained in a controlled environment—sterile cell culture flasks in a CO2 incubator Panasonic MCO-18AC (Panasonic Healthcare co., ltd, Oizumi-Machi, Japan) at 37 °C and a humidified atmosphere containing 5% CO2. CCL-1 was cultured in MEM with 10% heat-inactivated horse serum and 2 mM L-glutamine, and the cell culture medium for the rest of the cell lines was DMEM-HG with 4.5 g/L glucose with the addition of 10% heat-inactivated fetal bovine serum and 4 mM L-glutamine. Pen/strep (concentration of penicillin G sodium 10^5 Units/L and of streptomycin sulfate 100 mg/L) was added to both culture media. The cell lines were maintained as an adherent monolayer in a log phase. The cells were sub-cultivated about 1–3 times per week after the monolayer reached 80–90% confluence. The medium was removed from the flask, and the cell monolayer was washed with 3–5 mL PBS. The cells were incubated with 0.05% EDTA in PBS for 8–10 min, followed by the next step where all cell lines were subjected to enzyme cell detachment. HaCaT and CCL-1 monolayers were detached with 1 mL solution of trypsin/EDTA (0.1%/0.05% for HaCaT and 0.25% (w/v)/0.53 mM for CCL-1) and incubated for 2–5 min at 37 °C (for HaCaT) or at room temperature (for CCL-1 cells), whereas Accutase® was used for A-375 and A-431 lines. The incubation lasted until the separation and dispersion of the cells in the monolayer were observed using light microscopy. In the end, all cell lines were resuspended in 10 mL medium and centrifuged for 3 min at 300× g. The cell pellet was resuspended in fresh medium and sub-cultivated at a seeding density of 1.0 × 10^4 cells/cm^2.
The MTT test was performed in order to determine the median inhibitory (IC50) and MTC concentrations of the solvents and PAC according to Annex C, ISO 10993-5 [2, 21]. Briefly, 100 µL of the cell suspension (1 × 10^5 cells/mL) were seeded per well in 96-well plates with a flat bottom. The cells were incubated for 24 h, allowing them to enter the log phase of their growth. On the 24th hour, the cells were treated with the solvents or CystiCran® solutions in concentrations ranging between 0.004% and 2% volume fraction (v/v) and incubated further for 72 h. The incubation periods are following the recommendations of the FDA guide for the use of ISO 10993-1 [1]. At the end of the incubation period, 10 µL of an MTT solution (5 mg/mL) were added to each well, and the plates were kept at 37 °C for 2 hours. Thereafter, the medium was aspirated, and the formed formazan crystals were dissolved in 100 μL/well of 2-propanol supplemented with 5% formic acid. The same solvent was used as a blank. […] The absorption was measured at 540 nm (reference filter at 690 nm) on a microplate reader ELx800 (BioTek Instruments, Inc., Winooski, VT, Winooski, VT, USA).
The IC50 values from the MTT assay were evaluated with a non-linear regression analysis (Curve fit, GraphPad Prizm 6.01 software, GraphPad Software Inc., San Diego, CA, USA) using sigmoidal concentration–response curves. […]

| SMILES | DEHA (dehydrogenase activity) [1] [%] | DEHA (dehydrogenase activity) (S. Aureus ATCC 29213) [%] | DEHA (dehydrogenase activity) (E. coli ATCC 35218) [%] | MTC (maximum tolerated concentration) ([2]; 72 h, at least 70% of cells viable) | IC50 (CI 95%) ([2]; 72 h incubation) |
| --- | --- | --- | --- | --- | --- |
| C[S+](C)[O-] [DMSO, dimethyl sulfoxide] | 19.13 ± 0.17 | 12.29 ± 0.04 | 13.02 |  |  |
| CCO [EtOH, ethanol] |  |  |  | > 2 % (v/v) | > 2 % (v/v) |
